Assay results from patent US20090031435A1, “SMA Therapy and Cell Based Assay” (priority 2002, published 2009).

What was measured:
[1] = system: SMN2-luciferase reporter construct; experiment: SMN2-luciferase splicing reporter luminescence assay in C33A cells; format: cell-based, human; conditions: for SMN2 luminescence/SMN1 luminescence: highest point of the curve of increase in SMN2-luciferase luminescence minus increase in SMN1-luciferase luminescence (treated/control), dilution series max 10 uM; for luminescence from the SMN2-luciferase reporter construct: screen at 10 μM, ~48 hr
Experimental: (§1) In a screen to identify compounds capable of enhancing the inclusion of exon 7 in SMN2 mRNA, cells of the human cervical carcinoma cell line C33A (ATCC#HTB-31) were stably transformed with an SMN fragment/luciferase reporter gene construct that incorporated exons 6-8 of SMN1 or SMN2 for use in a high-throughput screening assay. These cells were cultured in Dulbecco's Modified Eagle's Medium (DMEM) with 10% Fetal Bovine Serum (Sigma F 2442), 50 units/mL penicillin 50 μg/mL streptomycin sulfate and 400 mg/L G418 (i.e. Geneticin, Gibco, cat. No. 11811-031). The assay medium used to perform the luciferase assay was identical to the growth medium except the G418 selection agent was omitted. To perform the luciferase assay, a single reagent (25 mM glycylglycine, 15 mM magnesium sulfate, 4 mM EGTA, adjusted to pH 7.85, to which is added 10 μM D-luciferin (Sigma L9504), 10 mM dithiothreitol (DTT, Roche Molecular Biochemicals 100034), 2 mM adenosine 5′-triphosphate (ATP, Sigma A7699), 50 μM CoenzymeA, sodium salt (Sigma C 3144) and 1.5% Triton X-100) was used to lyse the cells and to initiate the luciferase reaction.
(§2) Using this cell-based luminescence assay, a screen was performed to identify compounds that modulate SMN splicing. Stably transfected C33A cells (˜35-40 M cells/flask) were cultured, then removed from T-175 culture flasks with 3 mL trypsin, and quenched with 7 mL assay medium. The cells were spun down and re-suspended in assay medium to a concentration of ˜200,000 cells/mL. Cells were immediately seeded in 384-well assay plates (Nalge Nunc white plates, #164610) 57 μL/well for a cell density of 11,000 cells/well. Compounds from a library obtained from the National Institute of Neurological Disorders and Stroke (NINDS) were added to the cells to a final concentration of 10 μM (diluted with assay medium by 1000× from the 10 mM stock solution in DMSO). The cells were incubated with the test compounds at 37° C. for ˜48 hr. A Zymark Sciclone ALH was used for cell seeding and compound addition. After incubation, the assay plates were cooled to room temperature for ˜10-60 minutes. The medium and compounds were aspirated from the wells, followed by 6 rinse/aspirate cycles with a PBS solution. 53 μL of the luciferase assay reagent was added and the plate was immediately transferred to a luminescence plate reader. The plate was shaken for 30 minutes prior to reading. The plate processing steps were performed on an integrated Packard Minitrak/Sidetrak platereader.
(§3) To analyze the data, the dark count background was first subtracted from all luminescence readings. The signal from each compound treated well was divided by the average of 48 control wells on the same 384-well plate. Each compound library plate was tested in triplicate with each of the two cell lines, and the entire assay was repeated on two separate occasions, yielding six readings for each compound for each cell line. The highest and lowest of the six normalized readings were dropped and the remaining four readings averaged. These average values of compound-treated luminescence versus control luminescence are denoted “Xnorm(y)”, where X indicates the cell line, SMN1-luciferase or SMN2-luciferase, and y represents the compound. The difference of [SMN2norm(y)−SMN1norm(y)] measures the selective change in SMN2-luciferase expression versus change in SMN1 luciferase production upon treatment with compound y. This is the final score that is output.
(§4) These dilutions were created with a Zymark Sciclone ALH Z-8. Once created, the assay was performed as described for the screening process. Concentrations required to achieve 50% of the maximally achievable effect for each compound (“EC50”) were calculated using Xlfit (IDBS).

[2] = system: SMN1-luciferase control; experiment: SMN1-luciferase control splicing reporter luminescence assay in C33A cells; format: cell-based, human
Experimental: as §1, §2, §3, §4

Row | Compound | Effect on splicing of SMN2-luciferase in C33A cells [1] | Effect on splicing of SMN1-luciferase control in C33A cells [2] | SMN2 luminescence/SMN1 luminescence [1] | luminescence from the SMN2-luciferase reporter construct [1]
1 | COc1ccc2c(c1)c(CC(=O)O)c(C)n2C(=O)c1ccc(Cl)cc1 [1-(4-Chlorobenzoyl)-5-methoxy-2-methyl-3-indoleacetic acid] | None | None |  | 
2 | CN1C(=O)c2ccc(-c3ccccc3)cc2C1(O)C(C)(C)C (stereo not drawn) [1-tert-butyl-1-hydroxy-2-methyl-6-phenyl-3-isoindolinone] | None |  |  | 
3 | CC(O)c1ccc(N2Cc3ccccc3C2=O)cc1 (stereo not drawn) [1H-isoindol-1-one, 2,3-dihydro-2-[4-91-hydroxyethyl)phenyl]] | Increased | Increased |  | 
4 | O=C1c2ccccc2CN1c1ccccc1 [1H-isoindol-1-one, 2,3-dihydro-2-phenyl] | None | None |  | 
5 | O=C1NCc2ccccc21 [1H-isoindol-1-one, 2,3-dihydro-] | None | None |  | 
6 | O=C(O)CCC(C(=O)O)N1Cc2ccccc2C1=O (stereo not drawn) [2-Phthalimidino-glutaric acid] | None | None |  | 
7 | O=C(O)C(Cc1ccccc1)N1Cc2ccccc2C1=O (stereo not drawn) [2H-isoindol-2-acetic acid, 1,3-dihydro-1-oxo-alpha-(phenylmethyl)- . . .] | None | None |  | 
8 | O=C(O)CCCN1C(=O)c2ccccc2C1=O [2H-isoindol-2-butanoic, 1,3-dihydro-1,3-dioxo] | None | None |  | 
9 | Cc1ccc(C(CC(=O)O)N2Cc3ccccc3C2=O)cc1 (stereo not drawn) [2H-isoindol-2-propanoic acid, 1,3-dihydro-beta-(4-methylphenyl)-1-oxo] | None | None |  | 
10 | CCC(CC)(CC)C1(O)c2ccccc2C(=O)N1C (stereo not drawn) [3-(1,1-diethylpropyl)-3-hydroxy-2-methyl-1-isoindolinone] | None |  |  | 
11 | CN1C(=O)c2ccccc2C1(O)C(C)(c1ccccc1)c1ccccc1 (stereo not drawn) [3-(1,1-diphenylethyl)-3-hydroxy-2-methyl-1-isoindolinone] | None |  |  | 
12 | Cc1ccc(N2C(=O)c3ccccc3C2C(=O)c2ccc(O)cc2O)cc1 (stereo not drawn) [3-(2,4-hydroxybenzoyl)-2-(4-methylphenyl)-1-isoindolinone] | None |  |  | 
13 | Cc1ccc(N2C(=O)c3ccccc3C2C(=O)c2cc(O)ccc2O)cc1 (stereo not drawn) [3-(2,5-hydroxybenzoyl)-2-(4-methylphenyl)-1-isoindolinone] | None |  |  | 
14 | Cc1ccc(N2C(=O)c3ccccc3C2C(=O)c2cc(C)ccc2O)cc1 (stereo not drawn) [3-(2-hydroxy-5-methylbenzoyl)-2-(4-methylphenyl)-1-isoindolinone] | None |  |  | 
15 | O=C1c2ccccc2C(O)(c2ccc(Cl)cc2)N1OC1CCCCO1 (stereo not drawn) [3-(4-chlorophenyl)-3-hydroxy-2-(tetrahydropyran-2-yloxy)-1-isoindolinone] | None |  |  | 
16 | CC[C@@]1(O)C(=O)OCc2c1cc1n(c2=O)Cc2cc3ccccc3nc2-1 [Camptothecin, camptothecin] |  |  | 0.4 | increased luminescence
17 | CO[C@@]1(NC(=O)Cc2cccs2)C(=O)N2C(C(=O)O)=C(COC(N)=O)CS[C@@H]21 [Cefoxitin sodium, cefoxitin sodium] |  |  | 0.3 | increased luminescence
18 | O=C1C=C2C(=CCOC2O)O1 (stereo not drawn) [Patulin, patulin] |  |  | 0.7 | increased luminescence
19 | [O-][n+]1ccccc1[S-].[O-][n+]1ccccc1[S-].[Zn+2] [Pyrithione zinc, pyrithione zinc] |  |  | 1.0 | increased luminescence
20 | CC(=O)Nc1ccc(O)cc1 [acetominophen] |  |  |  | None of these compounds resulted in increased luminescence
21 | NC12CC3CC(CC(C3)C1)C2 [amantadine] |  |  | 0.3 | increased luminescence
22 | CC(=O)Oc1ccccc1C(=O)O [aspirin] |  |  |  | None of these compounds resulted in increased luminescence
23 | CC(C(=O)O)c1cccc(Oc2ccccc2)c1 (stereo not drawn) [fenoprofen] |  |  |  | None of these compounds resulted in increased luminescence
24 | CC(C(=O)O)c1ccc(-c2ccccc2)c(F)c1 (stereo not drawn) [flurbiprofen] |  |  |  | None of these compounds resulted in increased luminescence
25 | CC(C)Cc1ccc(C(C)C(=O)O)cc1 (stereo not drawn) [ibuprofen] |  |  |  | None of these compounds resulted in increased luminescence
26 | CC(C(=O)O)c1cccc(C(=O)c2ccccc2)c1 (stereo not drawn) [ketoprofen] |  |  |  | None of these compounds resulted in increased luminescence
27 | CC(C(=O)O)c1ccc(C(=O)c2cccs2)cc1 (stereo not drawn) [suprofen] |  |  |  | None of these compounds resulted in increased luminescence
28 | Methyl 2-[4-(1,3-dioxo-2,3-dihydro-1H-isoindol-2-yl)-3-me . . . | None |  |  | 
29 | Methyl 2-[4-(1,3-dioxo-2,3-dihydro-1H-isoindol-2-yl)phenyl . . . | None |  |  | 
